Assay results published in ChEMBL document CHEMBL5154783, “Design, synthesis, and evaluation of novel 3-thiophene derivatives as potent fungistatic and fungicidal reagents based on a conformational restriction strategy” (Eur J Med Chem, 2022).
Values after ≈ are worked out from the molar mass of the structure shown.

Assays:
Format in all cases: functional
[1] = test system: Candida albicans; assay: Antifungal activity against Candida albicans ATCC SC5314 assessed as fungal growth inhibition by CLSI based serial microbroth dilution method
[2] = test system: Candida albicans; assay: Antifungal activity against Candida albicans CPCC400616 assessed as fungal growth inhibition by CLSI based serial microbroth dilution method
[3] = test system: Candida tropicalis; assay: Antifungal activity against Candida tropicalis CGMCC 2.3739 assessed as fungal growth inhibition by CLSI based serial microbroth dilution method
[4] = test system: Cryptococcus neoformans; assay: Antifungal activity against Cryptococcus neoformans CGMCC 2.3161 assessed as fungal growth inhibition by CLSI based serial microbroth dilution method
[5] = test system: Candida parapsilosis; assay: Antifungal activity against Candida parapsilosis GIM 2.190 assessed as fungal growth inhibition by CLSI based serial microbroth dilution method; settings: Lodderomyces parapsilosis
[6] = test system: Nakaseomyces glabratus; assay: Antifungal activity against Candida glabrata clinical isolate assessed as fungal growth inhibition by CLSI based serial microbroth dilution method
[7] = test system: Pichia kudriavzevii; assay: Antifungal activity against Candida krusei GIM 2.1 assessed as fungal growth inhibition by CLSI based serial microbroth dilution method
[8] = test system: Aspergillus fumigatus; assay: Antifungal activity against Aspergillus fumigatus CGMCC 3.7795 assessed as fungal growth inhibition by CLSI based serial microbroth dilution method
[9] = test system: Candida albicans; assay: Antifungal activity against FLC and ITC-resistant Candida albicans 17 assessed as fungal growth inhibition by CLSI based serial microbroth dilution method
[10] = test system: Candida albicans; assay: Antifungal activity against FLC-resistant Candida albicans CaR assessed as fungal growth inhibition by CLSI based serial microbroth dilution method
[11] = test system: Candida albicans; assay: Antifungal activity against FLC-resistant Candida albicans 901 assessed as fungal growth inhibition by CLSI based serial microbroth dilution method
[12] = test system: Candida albicans; assay: Antifungal activity against FLC-resistant Candida albicans 904 assessed as fungal growth inhibition by CLSI based serial microbroth dilution method
[13] = test system: Candida albicans; assay: Antifungal activity against FLC-resistant Candida albicans 632 assessed as fungal growth inhibition by CLSI based serial microbroth dilution method
[14] = test system: Candida albicans; assay: Antifungal activity against FLC-resistant Candida albicans 100 assessed as fungal growth inhibition by CLSI based serial microbroth dilution method
[15] = test system: Candida albicans; assay: Antifungal activity against FLC-resistant Candida albicans 103 assessed as fungal growth inhibition by CLSI based serial microbroth dilution method
[16] = test system: Candida albicans; assay: Antifungal activity against FLC-resistant Candida albicans 311 assessed as fungal growth inhibition by CLSI based serial microbroth dilution method

| SMILES | MIC [1] [µg/mL] | MIC [2] [µg/mL] | MIC [3] [µg/mL] | MIC [4] [µg/mL] | MIC [5] [µg/mL] | MIC [6] [µg/mL] | MIC [7] [µg/mL] | MIC [8] [µg/mL] | MIC [9] [µg/mL] | MIC [10] [µg/mL] | MIC [11] [µg/mL] | MIC [12] [µg/mL] | MIC [13] [µg/mL] | MIC [14] [µg/mL] | MIC [15] [µg/mL] | MIC [16] [µg/mL] |
| --- | --- | --- | --- | --- | --- | --- | --- | --- | --- | --- | --- | --- | --- | --- | --- | --- |
| c1ccc(CC2(Cn3ccnc3)COC(c3cc4ccccc4s3)=N2)cc1 (stereo not drawn) | > 64 | > 64 | > 64 | 2 (≈ 5.36 µM) | > 64 | > 64 | > 64 | > 64 |  |  |  |  |  |  |  |  |
| Fc1cccc(F)c1CC1(Cn2ccnn2)COC(c2ccc(-c3ccsc3)cc2)=N1 (stereo not drawn) | 16 (≈ 36.7 µM) | 16 (≈ 36.7 µM) | > 64 | > 64 | > 64 | > 64 | > 64 | > 64 |  |  |  |  |  |  |  |  |
| Fc1ccc(CC2(Cn3ccnc3)COC(c3ccc(-c4ccsc4)cc3)=N2)c(F)c1 (stereo not drawn) | > 64 | > 64 | > 64 | > 64 | > 64 | > 64 | 2 (≈ 4.59 µM) | > 64 |  |  |  |  |  |  |  |  |
| c1ccc(CC2(Cn3ccnc3)COC(c3noc4c3CCc3ccccc3-4)=N2)cc1 (stereo not drawn) | 16 (≈ 39 µM) | 32 (≈ 78 µM) | 32 (≈ 78 µM) | > 64 | > 64 | 16 (≈ 39 µM) | > 64 | > 64 |  |  |  |  |  |  |  |  |
| c1ccc(CC2(Cn3ccnc3)COC(c3cc4ccccc4o3)=N2)cc1 (stereo not drawn) | > 64 | > 64 | 8 (≈ 22.4 µM) | > 64 | > 64 | > 64 | > 64 | > 64 |  |  |  |  |  |  |  |  |
| Fc1ccccc1CC1(Cn2ccnc2)COC(c2ccc(-c3ccsc3)cc2)=N1 (stereo not drawn) | 0.125 (≈ 0.299 µM) | 0.5 (≈ 1.2 µM) | 0.125 (≈ 0.299 µM) | 16 (≈ 38.3 µM) | 0.5 (≈ 1.2 µM) | 16 (≈ 38.3 µM) | 1 (≈ 2.4 µM) | 32 (≈ 76.6 µM) | 8 (≈ 19.2 µM) | 32 (≈ 76.6 µM) | 2 (≈ 4.79 µM) | 2 (≈ 4.79 µM) | 8 (≈ 19.2 µM) | 2 (≈ 4.79 µM) | 1 (≈ 2.4 µM) | 4 (≈ 9.58 µM) |
| FC(F)(F)c1ccc(CC2(Cn3ccnc3)COC(c3ccc(-c4ccsc4)cc3)=N2)cc1 (stereo not drawn) | > 64 | > 64 | > 64 | > 64 | > 64 | > 64 | > 64 | > 64 |  |  |  |  |  |  |  |  |
| Clc1cccc(CC2(Cn3ccnc3)COC(c3ccc(-c4ccsc4)cc3)=N2)c1 (stereo not drawn) | > 64 | > 64 | > 64 | > 64 | > 64 | > 64 | > 64 | > 64 |  |  |  |  |  |  |  |  |
| CC(C)c1ccc(CC2(Cn3ccnc3)COC(c3ccc(-c4ccsc4)cc3)=N2)cc1 (stereo not drawn) | > 64 | > 64 | > 64 | > 64 | > 64 | > 64 | > 64 | > 64 |  |  |  |  |  |  |  |  |
| c1ccc(CC2(Cn3ccnc3)COC(c3ccc4c(c3)OCO4)=N2)cc1 (stereo not drawn) | > 64 | > 64 | > 64 | > 64 | > 64 | > 64 | > 64 | > 64 |  |  |  |  |  |  |  |  |
| CCC(C)n1ncn(-c2ccc(N3CCN(c4ccc(OCC5COC(Cn6cncn6)(c6ccc(Cl)cc6Cl)O5)cc4)CC3)cc2)c1=O (stereo not drawn) [ITRACONAZOLE] | 0.03 (≈ 0.0425 µM) | < 0.03 | < 0.03 | 0.125 (≈ 0.177 µM) | 0.125 (≈ 0.177 µM) | 0.125 (≈ 0.177 µM) | 0.125 (≈ 0.177 µM) | 0.125 (≈ 0.177 µM) |  |  |  |  |  |  |  |  |
| Clc1ccc(CC2(Cn3ccnc3)COC(c3ccc(-c4ccsc4)cc3)=N2)cc1 (stereo not drawn) | > 64 | > 64 | > 64 | > 64 | > 64 | > 64 | > 64 | > 64 |  |  |  |  |  |  |  |  |
| Cc1cccc(CC2(Cn3ccnc3)COC(c3ccc(-c4ccsc4)cc3)=N2)c1 (stereo not drawn) | > 64 | > 64 | > 64 | > 64 | > 64 | > 64 | > 64 | > 64 |  |  |  |  |  |  |  |  |
| c1ccc(CC2(Cn3ccnc3)COC(c3ccc(-c4cncnc4)cc3)=N2)cc1 (stereo not drawn) | > 64 | > 64 | > 64 | > 64 | > 64 | > 64 | > 64 | > 64 |  |  |  |  |  |  |  |  |
| Brc1ccc(C2=NC(Cc3ccccc3)(Cn3ccnc3)CO2)cc1 (stereo not drawn) | > 64 | > 64 | > 64 | 4 (≈ 10.1 µM) | > 64 | > 64 | > 64 | > 64 |  |  |  |  |  |  |  |  |
